Measured values: patent US12097232B1, “Method of preventing cadmium-induced renal toxicity using a plant product derived from Achillea millefolium L” (KING FAISAL UNIVERSITY, priority 2024, dated 2024)

Key:
Format in all cases: in vivo, Wistar rats
[1] = Kidney weight in CdCl2-induced renal toxicity rats
Protocol: (§1) Thirty-two adult male Wistar rats (8-9 weeks old, weighing, 160-180 g) were purchased from the Experimental Animal Research Centre, King Saud University, Riyadh, KSA.
All the animals were maintained with typical laboratory food and water ad libitum in a ventilated cage system (12 h light/dark cycle, 20.3-23.1° C.) throughout the whole experiment.
(§2) To study the renal protective activity of Achillea millefolium essential oil (AEO) on CdCl2-induced renal toxicity, rats were randomly divided into four groups (n=8 per group). Control rats were orally administered saline 1 h before injected intraperitoneally (i.p.) with 0.9% NaCl (physiological saline) daily for 5 days. The CdCl2 group was orally administered saline 1 h before injected i.p. with 6.5 mg/kg CdCl2 daily for 5 days. The AEO group was orally administered AEO (200 mg/kg) 1 h before injected with 0.9% NaCl (physiological saline) daily for 5 days. The AEO+CdCl2 group was orally administered AEO (100 mg/kg) 1 h before injected 6.5 mg/kg CdCl2 i.p. daily for 5 days. CdCl2 was dissolved in physiological saline.
(§3) Rats were euthanized (decapitation) 24 hours after the final dosing. The kidneys were dissected, weighed to obtain the weight and then divided into 2 parts. […] The 2nd part was kept at −80° C. for quantitative real-time qRT-PCR.

[2] = Cd concentration in renal tissue by atomic absorption spectrophotometry
Protocol: as §1, §2, §3
The Cd concentrations in renal tissues were estimated as mentioned before. […] The levels of metal were measured by atomic absorption spectrophotometry in a graphite furnace at 228.8 nm. The Cd values are expressed as microgram per gram of wet renal tissue.

[3] = system: kidney function biomarkers (BUN, uric acid, creatinine, NAG); experiment: Kidney function biomarkers in CdCl2-induced renal toxicity
Protocol: as §1, §2
(§4) Rats were euthanized (decapitation) 24 hours after the final dosing. The kidneys were dissected, weighed to obtain the weight and then divided into 2 parts. The 1st part was homogenized in ice-cold 10 mM phosphate buffer (pH 7.4) to produce a 10% (w/v) homogenate for biochemical analysis. The 2nd part was kept at −80° C. for quantitative real-time qRT-PCR.
Biomarkers of kidney function, i.e., Blood urea nitrogen (BUN), uric acid, and creatinine, were evaluated by using specific commercial kits. N-acetyl-β-D-glucosaminidase (NAG) is a marker of tubular toxicity was assessed using ELISA kit.

[4] = system: HMGB1, TLR4, MYD88, NFκB gene expression; conditions: renal
Protocol: as §1, §2, §4
(§5) Gene expression for the TLR pathway, High-mobility group box 1 (HMBG1), Toll-Like Receptor 4 (TLR4), myeloid differentiation primary response gene 88 (MYD88), and Nuclear factor kappa B (NFκB) were quantified via real-time PCR (qPCR) consuming the primers' sequences, shown in Table 1, in agreement with the method described elsewhere. Briefly, RNA was isolated and purified using a Trizol reagent kit (Invitrogen, Carlsbad, CA, USA), then a reverse transcription polymerase chain reaction (RT-PCR) kit (TaKaRa, Kusatsu, Shiga, Japan) to reverse transcription reaction following the manufacturer's procedures. qPCR was applied using a SYBR ExScript RT-PCR kit, and quantification examinations were accomplished via an Opticon-2 Real-time PCR reactor (MJ Research, Capital Court, Reno, NV, USA). qPCR results were obtained using Step PE Applied Biosystems (Waltham, MA, USA) software. Relative gene expression data were calculated as mentioned earlier by the Livak and Schmittgen method (2−^ΔΔCq2) and presented as a fold change.

[5] = system: TNF-α, IFN-γ, MCP-1, IL-10; experiment: Renal inflammatory mediators by ELISA in Cd-induced renal toxicity; conditions: CdCl2 group vs control
Protocol: as §1, §2, §4
Inflammation markers including interferon gamma (IFN-γ), monocyte chemoattractant protein-1 (MCP-1), tumor necrosis factor alpha (TNF-α), and interleukin 10 (IL-10) were measured using ELISA kits.

MDA, SOD, CAT, GPx, GSH = experiment: Renal oxidative stress markers in Cd-induced renal toxicity
Protocol: as §1, §2, §4
Lipid peroxidation was assessed according to the amount of malondialdehyde (MDA). The content of reduced glutathione (GSH) was evaluated and the activities of Catalase (CAT), Superoxide dismutase (SOD) and glutathione peroxidase (GPx) were estimated using kits.

[6] = system: Caspase 3, Caspase 9, Bax, Bcl2; conditions: CdCl2 renal injury vs control
Protocol: as §1, §2, §4, §5
The actions of AEO administration on the apoptotic markers, such as caspase-3 and caspase 9 were evaluated.

[7] = CdCl2 group: CdCl2 6.5 mg/kg i.p. daily 5 days, mean ± SD
[8] = Cd experienced animals vs control
[9] = renal, CdCl2 administered rats vs control

In the case of `[Cl][Cd][Cl]` [CdCl2], the “kidney weight (in words)” value ([1]; CdCl2 group vs control) is reported as “reduction in kidney weight”, the Kidney wt. [1, 7] is reported as 1.43 ± 0.11 g and the “Cd concentration in renal tissue (in words)” value ([2]; CdCl2 group vs control) is reported as “significantly increased”. The Cd concentration [2, 7] was 0.95 ± 0.01 μg/g renal tissue, the “BUN level (in words)” value ([3]; Cd-exposed rats vs control) was “increases” and the “serum creatinine level (in words)” value ([3]; Cd-exposed rats vs control) was “increases”. For the same compound, the “uric acid level (in words)” value ([3]; Cd-exposed rats vs control) was “increases”, the BUN [3, 7] was 40.66 ± 3.15 mg/dL and the NAG [3, 7] was 33.2 ± 6.8 mIU/ml. The Uric acid [3, 7] was 4.54 ± 0.15 mg/dL, the Creatinine ([3]; serum, CdCl2 group: CdCl2 6.5 mg/kg i.p. daily 5 days, mean ± SD) was 0.68 ± 0.01 mg/dL and the “HMGB1 mRNA expression level” value ([4]; Cd administered rats vs control) was “increased”. For the same compound, the “MYD88 mRNA expression” value [4, 8] was “amplified significantly”, the “TLR4 mRNA expression” value [4, 8] was “amplified significantly” and the “nuclear NFκB p65 level” value ([4]; Cd group vs control) was “significantly augmented”. The IFN-γ renal level [5] was “amplified”, the MCP-1 renal level [5] was “amplified” and the TNF-α renal level [5] was “amplified”. For the same compound, the IL-10 level ([5]; renal) was “declined”, the “renal GSH content” value (MDA, SOD, CAT, GPx, GSH; CdCl2 group vs control) was “obvious reduction” and the CAT activity (MDA, SOD, CAT, GPx, GSH; [9]) was “considerably declined”. The GPx activity (MDA, SOD, CAT, GPx, GSH; [9]) was “considerably declined”, the SOD activity (MDA, SOD, CAT, GPx, GSH; [9]) was “considerably declined” and the “MDA level (lipid peroxidation)” value (MDA, SOD, CAT, GPx, GSH; renal, CdCl2 group vs control) was “augmented”. The “caspase 3 renal content” value [6] was “augmented”, the “caspase 9 renal content” value [6] was “augmented” and the Bax gene expression ([6]; renal) was “augmented”. The Bcl2 gene expression ([6]; renal) was “diminished”.
